Measured values from patent publication US12233073B2, “Skin care formulations and skin cancer treatment” (Regents of the University of Minnesota, priority 2017, dated 2025).

Experiments:
IFN-γ, IL-12 and PGE2 = experiment: Immune system markers (IFN-γ, IL-12, PGE2, T-cell markers) in the SSL-induced prevention models; assay type: in vivo, mouse; conditions: for T cell infiltrates in mouse skin: CD3, CD4 markers; for production of IFN-γ in mouse serum: ELISA; for production of IFN-γ in mouse serum / production of IL-12 in mouse serum / production of IL-12 in mouse skin: SSL-induced prevention models; for PGE2 levels in the skin: SSL-exposed skin
From the text: Exposure to UV radiation suppresses the immune response and UV-induced immune suppression is a major risk factor for skin cancer. In particular, UV exposure induces the production of Th2-associated cytokines and interferes with antigen presentation to Th1 cells producing IFN-γ. To determine whether rocuronium bromide or betamethasone 17-valerate affects the immune system response, the level of immune system markers, including interferon-γ (IFN-γ), interleukin-12 (IL-12) and prostaglandin E2 (PGE2), in mouse serum and the T-cell markers, CD3 and CD4, were examined. CD3 is associated with the T-cell receptor (TCR) and is essential in signal transduction in T cells following TCR activation. Tumor microenvironment-mediated down-regulation of TCR-associated signaling leads to the inhibition of T cell function and antitumor immunity in the tumor-bearing host. Very few T cells are observed in the epidermis and dermis of solar UV-induced SCCs.
SSL-induced immunosuppressive responses are associated with production of Th2-related cytokines (IL-10) and disturbance of antigen presentation to Th1 cells producing IFN-γ. Therefore, SSL-induced immunosuppression could be prevented by the Th1 cytokine, IFN-γ. An enzyme-linked immunosorbent assay (ELISA) was performed to examine IFN-γ levels in mouse serum. FIG. 25A is a chart comparing the effect of rocuronium bromide treatment on enhancement of IFN-γ production by immune cells in an early-stage SSL-induced prevention model. IL-12 is an immunoregulatory cytokine to reverse UV-induced DNA damage and immunosuppression, and also regulates the function and development of Th1 type cells by stimulating IFN-γ production. Furthermore, treatment with recombinant IL-12 reversed the UV-induced immunosuppression. Additionally, PGE2 plays a key role as an activator of UV-induced immunosuppression through its down-regulation of the levels of IL-12. Thus, the effects of PRPK inhibitors on SSL-induced changes on the immunoregulatory cytokines, IL-12 and PGE2, were investigated.

[1] = Absorption of sUV wavelengths by the PRPK inhibitors; assay type: physicochemical; conditions: for absorption of sUV wavelengths: UVB or UVA range (280 to 400 nm)
Experimental: To assess whether the effectiveness of rocuronium bromide or betamethasone 17-valerate was related to absorption or attenuation of sUV wavelengths, instead of or in addition to inhibition of PRPK phosphorylation, absorption of sUV wavelengths by rocuronium bromide or betamethasone 17-valerate was evaluated. […] The maximum absorption wavelength for rocuronium bromide was 227 nm, and that for betamethasone-17-valerate was 240 nm.

[2] = test system: SSL-induced skin carcinogenesis in SKH-1 hairless mice; experiment: Chronic SSL-induced skin carcinogenesis in SKH-1 hairless mice (early-stage and late-stage prevention models); assay type: in vivo, mouse; conditions: for SSL-induced neovascularization in tumor areas: early- and late-stage models (FIGS. 23, 24A, 24B); for SSL-induced skin carcinogenesis: topical cream 0.1% or 1%; for Ki-67 expression / PRPK phosphorylation: skin staining, FIGS. 23, 24A, 24B
Experimental: The effectiveness of rocuronium bromide (EXAMPLES 11 and 12) and betamethasone 17-valerate (EXAMPLE 13) in mouse models of chronic sUV-induced skin carcinogenesis was evaluated. Female SKH-1 hairless mice (5 weeks old, Charles River, Burlington, MA) were used. Skin carcinogenesis was induced by SSL-irradiation source lamps. […] For topical treatment to the dorsal mouse skin, cream (oil-in-water emulsions) containing 0.1% or 1% (0.1 or 1 mg in 100 μl) of rocuronium bromide or betamethasone 17-valerate were prepared. The models included early-stage prevention models (EXAMPLE 11) and a late-stage prevention models (EXAMPLES 12 and 13). […] SSL treatment was for 15 weeks and the drug cream was continued for 29 weeks. In the late-stage model, mice received SSL for 15 weeks at which time they began receiving topical application with rocuronium bromide or betamethasone 17-valerate. For the early stage model, SKH-1 hairless mice were divided into groups as follows: Groups 1 and 2 were negative control groups, untreated and treated with only cream vehicle with no SSL exposure; Group 3=1% rocuronium bromide; Group 4=SSL alone without cream; Group 5=SSL with cream only; Group 6=0.1% rocuronium bromidein cream with SSL; Group 7=1% rocuronium bromide in cream with SSL. For the late stage models, groups were as follows: Groups 8 and 9 were negative control groups, untreated and treated with only cream vehicle with no SSL exposure; Group 10=1% rocuronium bromide only; Group 11=1% betamethasone 17-valerate only; Group 12=SSL alone with cream; Group 13=SSL with 0.1% rocuronium bromide; Group 14=1% rocuronium bromide in cream with SSL; Group 15=0.1% betamethasone 17-valerate in cream with SSL; and Group 16=1% […] betamethasone 17-valerate in cream with SSL. An antibiotic ointment was applied to the eyes of each mouse prior to SSL exposure and body weight and tumor volume were measured each week.

[3] = test system: SSL-exposed skin of SKH-1 hairless mouse; experiment: Acute SSL-induced skin inflammation in SKH-1 hairless mouse skin (H&E, p-PRPK staining and blot); assay type: in vivo; conditions: for sUV-induced increase in PRPK expression / sUV-induced increase in epidermal thickness: topical in cream carrier, 24 h after SSL irradiation, vs untreated sUV-exposed group; for phosphorylation of PRPK in sUV-treated mouse skin / sUV-induced phosphorylation on increasing the concentration: topical treatment; for sUV-induced phosphorylation on increasing the concentration: higher concentration
Experimental: PRPK phosphorylation induced by sUV is a potent stimulator of skin inflammation. Inflammation contributes to tumor development and progression and metastasis often arises in acute and chronic inflammatory skin conditions and increased epidermal thickness is a sign of sUV-induced inflammatory responses. To examine the effect of rocuronium bromide on SSL-induced acute skin inflammation, H&E (haemotoxylin and eosin) staining on SSL-exposed skin tissues of SKH-1 hairless mouse skin was performed. FIG. 15 is a photographic array comparing epidermal thickness in mouse skin samples exposed to one or more of SSL, rocuronium bromide, and betamethasone 17-valerate. FIG. 16 is a photographic array comparing expression of phosphorylated PRPK in immunologically stained mouse skin samples exposed to one or more of SSL, rocuronium bromide, and […]. A cream carrier was used to apply the rocuronium bromide or betamethasone 17-valerate. […] In contrast, application of rocuronium bromide or betamethasone-17-valerate attenuated sUV-induced increases in epidermal thickness and PRPK expression compared to the untreated sUV-exposed group (FIGS. 15 and 16).
FIG. 17 is a photograph illustrating a chromatographic plate comparing the phosphorylation of PRPK in mouse skin tissue samples treated or not treated with rocuronium bromide and exposed or not exposed to SSL. FIG. 18 is a photograph illustrating a chromatographic plate comparing the phosphorylation of PRPK in mouse skin tissue samples treated or not treated with betamethasone 17-valerate and exposed or not exposed to SSL. Topical treatment with rocuronium bromide (FIG. 17) or betamethasone-17-valerate (FIG. 18) decreased phosphorylation of PRPK in sUV-treated mouse skin.

| Compound | T cell infiltrates in mouse skin (IFN-γ, IL-12 and PGE2) | production of IFN-γ in mouse serum (IFN-γ, IL-12 and PGE2) | PGE2 levels in the skin (IFN-γ, IL-12 and PGE2) | production of IL-12 in mouse serum (IFN-γ, IL-12 and PGE2) | production of IL-12 in mouse skin (IFN-γ, IL-12 and PGE2) | maximum absorption wavelength [1] [nm] | absorption of sUV wavelengths [1] | SSL-induced neovascularization in tumor areas [2] | tumor number ([2]; late-stage model) | tumor volume ([2]; late-stage model) | SSL-induced skin carcinogenesis ([2]; late-stage model) | Ki-67 expression [2] | PRPK phosphorylation [2] | sUV-induced increase in PRPK expression [3] | sUV-induced increase in epidermal thickness [3] | phosphorylation of PRPK in sUV-treated mouse skin [3] | sUV-induced phosphorylation on increasing the concentration [3] | also measured |
| --- | --- | --- | --- | --- | --- | --- | --- | --- | --- | --- | --- | --- | --- | --- | --- | --- | --- | --- |
| C=CC[N+]1([C@H]2C[C@H]3[C@@H]4CC[C@H]5C[C@H](O)[C@@H](N6CCOCC6)C[C@]5(C)[C@H]4CC[C@]3(C)[C@H]2OC(C)=O)CCCC1 [rocuronium bromide] | dense T cell infiltrates | increased | decreased | increased | increased | 227 | do not Substantially Absorb or Block | inhibited | decreased | decreased | reduced | inhibited | inhibited | attenuated | attenuated | decreased | further reduced | levels of COX-2 in SKH-1 hairless mouse skin ([2]; FIGS. 20C, 21C): suppressed; levels of MMP-9 in SKH-1 hairless mouse skin ([2]; FIGS. 20C, 21C): suppressed; levels of cyclin D1 in SKH-1 hairless mouse skin ([2]; FIGS. 20C, 21C): suppressed; levels of phosphorylated PRPK in SKH-1 hairless mouse skin ([2]; FIGS. 20C, 21C): suppressed; tumor volume ([2]; early-stage model (FIG. 20A)): decreased; tumor number ([2]; early-stage model (FIG. 20B)): decreased; SSL-induced skin carcinogenesis ([2]; early-stage model): reduced |
| CCCCC(=O)O[C@]1(C(=O)CO)[C@@H](C)C[C@H]2[C@@H]3CCC4=CC(=O)C=C[C@]4(C)[C@@]3(F)[C@@H](O)C[C@@]21C [betamethasone 17-valerate] | dense T cell infiltrates | increased | decreased | increased | increased | 240 | do not Substantially Absorb or Block | inhibited | reduces | reduces | reduced | inhibited | inhibited | attenuated | attenuated | decreased | further reduced |  |
